Data reported in patent US5792635A, “Method of inhibiting the sodium/proton exchanger NHE3 and method of inhibiting growth by administering squalamine” (priority 1995, dated 1998).
In brackets after ≈: the same amount, converted by molar mass.

What was measured:
Xenopus tadpoles = assay: Tadpole assay; conditions: Xenopus tadpole assay
chick embryo = assay: Chick embryo diss. assay (Table II); format: in vivo
Procedure: Using the chick embryo vitelline capillaries assay, compounds were tested for their ability to induce capillary regression. Each compound was applied in 0.1 ml of 15% Ficol 400 and PBS onto the embryo, and vascular regression was assessed after 60 minutes.

S. aureus = assay: Antibiotic activity, MIC; format: cell-based; conditions: for MIC: Staphylococcus aureus
E. Coli = assay: Antibiotic activity, MIC; format: cell-based; conditions: for MIC: Escherichia coli
C. albicans = assay: Antibiotic activity, MIC; format: cell-based; conditions: for MIC: Candida albicans

Compound | MIC (S. aureus) [µg/mL] | MIC (E. Coli) [µg/mL] | MIC (C. albicans) [µg/mL] | other results
C[C@H](CCC(=O)O)[C@H]1CC[C@H]2[C@@H]3C[C@@H](O)[C@H]4C[C@@H](NCCN)CC[C@]4(C)[C@H]3CC[C@]12C [Compound 433] |  |  |  | functional similarity in tadpole assay (Xenopus tadpoles): functionally similar to compound 1437
CC(C)CCCC(C)[C@H]1CCC2C3CC[C@H]4C[C@H](NCCCN5CCCCN=C5N)CC[C@]4(C)C3CC[C@@]21C (stereo partly shown) |  |  |  | Minimum Effective Concentration, chick embryo diss. assay (chick embryo): > 10 µg
COC(=O)CC[C@@H](C)[C@H]1CC[C@H]2[C@@H]3CC[C@H]4C[C@@H](NCCCNCCCCNCCCN)CC[C@]4(C)[C@H]3CC[C@]12C [Compound 459] |  |  |  | functional similarity in tadpole assay (Xenopus tadpoles): pharmacologic activity similar to that seen for FX 3
CC(C)CCCC(C)[C@H]1CCC2C3C(CC[C@@]21C)[C@@]1(C)CC[C@@H](NCCCNCCCCN)C[C@@H]1C[C@H]3O (stereo partly shown) [drawing 56] | 4 (≈ 7.52 µM) | 32 (≈ 60.2 µM) | 2 (≈ 3.76 µM) | 
CC(COS(=O)(=O)O)C(=O)CC[C@@H](C)[C@H]1CC[C@H]2[C@@H]3[C@H](O)C[C@H]4C[C@@H](NCCCNCCCCN)CC[C@]4(C)[C@H]3CC[C@]12C (stereo partly shown) | 8 (≈ 12.5 µM) |  |  | 
CC(C)CCC[C@@H](C)[C@H]1CC[C@H]2[C@@H]3CC[C@H]4C[C@H](NCCCN5CCCCN=C5N)CC[C@]4(C)[C@H]3CC[C@]12C |  |  |  | MIC Values (S. aureus): 2 µg/mL (≈ 3.7 µM); MIC Values (E. Coli): > 256 µg/mL; MIC Values (C. albicans): 32 µg/mL (≈ 59.2 µM)
CC(CCC(=O)O)[C@H]1CCC2C3CC[C@@H]4C[C@H](NCCN)CC[C@]4(C)C3C[C@H](O)[C@@]21C (stereo partly shown) [drawing 115] |  |  |  | Minimum Effective Concentration, chick embryo diss. assay (chick embryo): > 1 µg
CC(CCC(=O)O)[C@H]1CCC2C3CC[C@@H]4C[C@H](NCCCNCCCCNCCCN)CC[C@]4(C)C3C[C@H](O)[C@@]21C (stereo partly shown) [drawing 107] |  |  |  | Minimum Effective Concentration, chick embryo diss. assay (chick embryo): > 1 µg
COC(=O)CCC(C)[C@H]1CCC2C3CC[C@@H]4C[C@H](NCCCNCCCCNCCCN)CC[C@]4(C)C3C[C@H](O)[C@@]21C (stereo partly shown) [drawing 72] | 2 (≈ 3.38 µM) | 16 (≈ 27.1 µM) | 8 (≈ 13.5 µM) | 
COC(=O)CCC(C)[C@H]1CCC2C3C[C@@H](O)[C@H]4C[C@@H](NCCCNCCCCNCCCN)CC[C@]4(C)C3CC[C@@]21C (stereo partly shown) [drawing 101] |  |  |  | Minimum Effective Concentration, chick embryo diss. assay (chick embryo): 1 µg
COC(=O)CCC(C)[C@H]1CCC2C3C[C@@H](O)[C@H]4C[C@H](NCCN)CC[C@]4(C)C3CC[C@@]21C (stereo partly shown) [drawing 103] |  |  |  | Minimum Effective Concentration, chick embryo diss. assay (chick embryo): > 1 µg
COC(=O)CCC(C)[C@H]1CCC2C3CC[C@H]4C[C@@H](NCCCNCCCCNCCCN)CC[C@]4(C)C3CC[C@@]21C (stereo partly shown) [drawing 75] | 1 to 2 (≈ 1.74 to 3.48 µM) | 32 (≈ 55.7 µM) | 2 (≈ 3.48 µM) | 
CC(CCC(=O)O)[C@H]1CCC2C3C(CC[C@@]21C)[C@@]1(C)CC[C@@H](NCCCNCCCCN)CC1C[C@H]3O (single isomer, unassigned) |  |  |  | Minimum Effective Concentration, chick embryo diss. assay (chick embryo): 0.01 µg
CC(C)CCC[C@@H](C)[C@H]1CC[C@H]2[C@@H]3CC[C@H]4C[C@H](NCCCNCCCCNCCCN)CC[C@]4(C)[C@H]3CC[C@]12C |  |  |  | Minimum Effective Concentration, chick embryo diss. assay (chick embryo): > 10 µg
COC(=O)CCC(C)[C@H]1CCC2C3CC[C@@H]4C[C@H](NCCCNCCCCNCCCN)CC[C@]4(C)C3C[C@H](O)[C@@]21C (stereo partly shown) [drawing 106] |  |  |  | Minimum Effective Concentration, chick embryo diss. assay (chick embryo): 1 µg
CC(C)CCC[C@@H](C)[C@H]1CC[C@H]2[C@@H]3[C@H](O)C[C@H]4C[C@@H](NCCCNCCCCN)CC[C@]4(C)[C@H]3CC[C@]12C [Compound 371] |  |  |  | functional similarity in tadpole assay (Xenopus tadpoles): effects like those produced by compound 1436
CC(C)CCC[C@@H](C)[C@H]1CC[C@H]2[C@@H]3[C@H](O)C[C@H]4C[C@H](NCCCNCCCCN)CC[C@]4(C)[C@H]3CC[C@]12C [Compound 370] |  |  |  | functional similarity in tadpole assay (Xenopus tadpoles): pharmacologic activity similar to that seen for FX 3
COC(=O)CC[C@@H](C)[C@H]1CC[C@H]2[C@@H]3C[C@@H](O)[C@H]4C[C@@H](NCCN)CC[C@]4(C)[C@H]3CC[C@]12C [Compound 432] |  |  |  | functional similarity in tadpole assay (Xenopus tadpoles): functionally similar to compound 1437
CC(C)CCCC(C)[C@H]1CCC2C3C(CC[C@@]21C)[C@@]1(C)CC[C@H](NCCCNCCCCN)C[C@@H]1C[C@H]3O (stereo partly shown) [drawing 57] | 4 (≈ 7.52 µM) | 64 (≈ 120 µM) | 2 (≈ 3.76 µM) | 
COC(=O)CC[C@@H](C)[C@H]1CC[C@H]2[C@@H]3CC[C@@H]4C[C@H](NCCN)CC[C@]4(C)[C@H]3C[C@H](O)[C@]12C [Compound 416] |  |  |  | functional similarity in tadpole assay (Xenopus tadpoles): functionally similar to compound 1437
CC(CCC(=O)O)[C@H]1CCC2C3C(CC[C@@]21C)[C@@]1(C)CC[C@@H](NCCN)C[C@H]1C[C@H]3O (stereo partly shown) | 32 (≈ 73.6 µM) | 64 (≈ 147 µM) | 64 (≈ 147 µM) | 
COC(=O)CCC(C)[C@H]1CCC2C3C[C@@H](O)[C@H]4C[C@H](NCCCNCCCCNCCCN)CC[C@]4(C)C3CC[C@@]21C (stereo partly shown) | 2 to 4 (≈ 3.38 to 6.77 µM) | 32 (≈ 54.2 µM) | 4 (≈ 6.77 µM) | 
COC(=O)CC[C@@H](C)[C@H]1CC[C@H]2[C@@H]3C[C@@H](O)[C@H]4C[C@H](NCCCNCCCCNCCCN)CC[C@]4(C)[C@H]3CC[C@]12C [Compound 465] |  |  |  | functional similarity in tadpole assay (Xenopus tadpoles): pharmacologic activity similar to that seen for FX 3

Compound | MIC (S. aureus) [µg/mL] | MIC (E. Coli) [µg/mL] | MIC (C. albicans) [µg/mL] | other results
CC(CCC(=O)O)[C@H]1CCC2C3CC[C@@H]4C[C@H](NCCN)CC[C@]4(C)C3C[C@H](O)[C@@]21C (stereo partly shown) [drawing 66] | 16 to 32 (≈ 36.8 to 73.6 µM) | 64 (≈ 147 µM) | 32 (≈ 73.6 µM) | 
CC(C)CCC[C@@H](C)[C@H]1CC[C@H]2[C@@H]3[C@H](O)C[C@H]4C[C@H](N)CC[C@]4(C)[C@H]3CC[C@]12C [Compound 1363] |  |  |  | functional similarity in tadpole assay (Xenopus tadpoles): pharmacologic activity similar to Fraction 1; potency in tadpole assay relative to Fraction 1 (Xenopus tadpoles): potencies comparable to that of Fraction 1
CC(CCC(=O)O)[C@H]1CCC2C3CC[C@@H]4C[C@H](NCCCNCCCCNCCCN)CC[C@]4(C)C3C[C@H](O)[C@@]21C (stereo partly shown) [drawing 73] | 4 (≈ 6.93 µM) | 8 to 16 (≈ 13.9 to 27.7 µM) | 4 (≈ 6.93 µM) | 
CC(C)CCCC(C)[C@H]1CCC2C3C(CC[C@@]21C)[C@@]1(C)CC[C@H](N)C[C@@H]1C[C@H]3O (stereo partly shown) [drawing 55] | 2 (≈ 4.95 µM) | > 256 | 2 (≈ 4.95 µM) | 
COC(=O)CC[C@@H](C)[C@H]1CC[C@H]2[C@@H]3C[C@@H](O)[C@H]4C[C@@H](NCCCNCCCCNCCCN)CC[C@]4(C)[C@H]3CC[C@]12C [Compound 466] |  |  |  | functional similarity in tadpole assay (Xenopus tadpoles): pharmacologic activity similar to that seen for FX 3
COC(=O)CCC(C)[C@H]1CCC2C3C[C@@H](O)[C@H]4C[C@@H](NCCN)CC[C@]4(C)C3CC[C@@]21C (stereo partly shown) | 1 (≈ 2.23 µM) | 8 to 16 (≈ 17.8 to 35.7 µM) | 2 to 4 (≈ 4.46 to 8.91 µM) | 
CC(CCC(=O)O)[C@H]1CCC2C3C[C@@H](O)[C@H]4C[C@@H](NCCCNCCCCNCCCN)CC[C@]4(C)C3CC[C@@]21C (stereo partly shown) | 16 (≈ 27.7 µM) | 16 (≈ 27.7 µM) | 4 (≈ 6.93 µM) | 
COC(=O)CCC(C)[C@H]1CCC2C3C(CC[C@@]21C)[C@@]1(C)CC[C@H](NCCCNCCCCNCCCN)C[C@H]1C[C@H]3O (stereo partly shown) [drawing 60] | 8 (≈ 13.5 µM) | 64 (≈ 108 µM) | 2 (≈ 3.38 µM) | 
COC(=O)CCC(C)[C@H]1CCC2C3CC[C@H]4C[C@H](NCCCNCCCCNCCCN)CC[C@]4(C)C3CC[C@@]21C (stereo partly shown) [drawing 74] | 4 (≈ 6.96 µM) | 32 (≈ 55.7 µM) | 2 (≈ 3.48 µM) | 
COC(=O)CCC(C)[C@H]1CCC2C3CC[C@@H]4C[C@H](NCCN)CC[C@]4(C)C3C[C@H](O)[C@@]21C (stereo partly shown) [drawing 65] | 8 (≈ 17.8 µM) | 8 (≈ 17.8 µM) | 32 (≈ 71.3 µM) | 
C=C(C)C(=O)CCC(C)[C@H]1CCC2C3C(CC[C@@]21C)[C@@]1(C)CC[C@H](NCCCNCCCCN)C[C@@H]1C[C@H]3O (stereo partly shown) | 4 (≈ 7.35 µM) | 32 (≈ 58.8 µM) | 4 (≈ 7.35 µM) | 
COC(=O)CC[C@@H](C)[C@H]1CC[C@H]2[C@@H]3C[C@@H](O)[C@H]4C[C@H](NCCN)CC[C@]4(C)[C@H]3CC[C@]12C [Compound 431] |  |  |  | functional similarity in tadpole assay (Xenopus tadpoles): functionally similar to compound 1437
COC(=O)CCC(C)[C@H]1CCC2C3C(CC[C@@]21C)[C@@]1(C)CC[C@@H](NCCN)C[C@H]1C[C@H]3O (stereo partly shown) [drawing 59] | 16 (≈ 35.7 µM) | 16 (≈ 35.7 µM) | 16 (≈ 35.7 µM) | 
COC(=O)CCC(C)[C@H]1CCC2C3C(CC[C@@]21C)[C@@]1(C)CC[C@H](NCCN)C[C@H]1C[C@H]3O (stereo partly shown) [drawing 58] | 32 (≈ 71.3 µM) | 64 (≈ 143 µM) | 16 (≈ 35.7 µM) | 
COC(=O)CC[C@@H](C)[C@H]1CC[C@H]2[C@@H]3[C@H](O)C[C@@H]4C[C@H](NCCN)CC[C@]4(C)[C@H]3CC[C@]12C [Compound 410] |  |  |  | functional similarity in tadpole assay (Xenopus tadpoles): functionally similar to compound 1437
C[C@H](CCC(=O)O)[C@H]1CC[C@H]2[C@@H]3[C@H](O)C[C@@H]4C[C@@H](NCCCNCCCCNCCCN)CC[C@]4(C)[C@H]3CC[C@]12C [drawing 62] | 8 (≈ 13.9 µM) | 256 (≈ 444 µM) | 32 (≈ 55.5 µM) | 
CC(CCC(=O)O)[C@H]1CCC2C3C(CC[C@@]21C)[C@@]1(C)CC[C@H](NCCN)C[C@H]1C[C@H]3O (stereo partly shown) [drawing 64] | 128 (≈ 294 µM) | 128 (≈ 294 µM) | 256 (≈ 589 µM) | 
CC(C)CCCC(C)[C@H]1CCC2C3C(CC[C@@]21C)[C@@]1(C)CC[C@@H](N)C[C@@H]1C[C@H]3O (stereo partly shown) | 2 (≈ 4.95 µM) | > 256 | 2 (≈ 4.95 µM) | 
COC(=O)CCC(C)[C@H]1CCC2C3C[C@@H](O)[C@H]4C[C@H](NCCN)CC[C@]4(C)C3CC[C@@]21C (stereo partly shown) [drawing 67] | 16 (≈ 35.7 µM) | 32 to 64 (≈ 71.3 to 143 µM) | 8 (≈ 17.8 µM) | 
CC(CCC(=O)O)[C@H]1CCC2C3C[C@@H](O)[C@H]4C[C@@H](NCCN)CC[C@]4(C)C3CC[C@@]21C (stereo partly shown) [drawing 69] | > 256 | > 256 | > 256 | 
COC(=O)CCC(C)[C@H]1CCC2C3C[C@@H](O)[C@H]4C[C@@H](NCCCNCCCCNCCCN)CC[C@]4(C)C3CC[C@@]21C (stereo partly shown) [drawing 77] | 2 (≈ 3.38 µM) | 32 (≈ 54.2 µM) | 2 (≈ 3.38 µM) | 
CC(CCC(=O)O)[C@H]1CCC2C3C(CC[C@@]21C)[C@@]1(C)CC[C@@H](NCCCNCCCCNCCCN)C[C@H]1C[C@H]3O (stereo partly shown) [drawing 61] | 8 (≈ 13.9 µM) | 64 (≈ 111 µM) | 8 (≈ 13.9 µM) | 
COC(=O)CC[C@@H](C)[C@H]1CC[C@H]2[C@@H]3CC[C@H]4C[C@H](NCCCNCCCCNCCCN)CC[C@]4(C)[C@H]3CC[C@]12C [Compound 458] |  |  |  | functional similarity in tadpole assay (Xenopus tadpoles): pharmacologic activity similar to that seen for FX 3
